How the values were obtained:
[1] = test system: NCI-H292 (lung carcinoma); test: MTT reduction cytotoxicity assay, NCI-H292; type: cell-based; conditions: Homo sapiens, 72 h incubation
Protocol: (§1) The human tumor cell lines used were HL-60 (promyelocytic leukemia), MCF-7 (breast adenocarcinoma) and NCI-H292 (lung carcinoma). The cells were obtained from Rio de Janeiro Cell Bank (RJ, Brazil). Cancer cells were maintained in RPMI 1640 medium or DMEN supplemented with 10% fetal bovine serum, 2 mM glutamine, 100 U/mL penicillin, 100 μg/mL streptomycin at 37° C. with 5% CO2. Cytotoxicity of (6R)-6-[(2Z)-pent-2-enyl]-5,6-dihydro-2H-pyran-2-one [(R)-(−)-Tuberolactone] against the three tumor cell lines was assessed using the 3-(4,5-dimethyl-2-thiazolyl)-2,5-diphenyl-2H tetrazolium bromide (MTT) (Sigma Aldrich Co., St. Louis, Mo., USA) reduction assay. Tumor cells were plated in 96-well plates (10^5 cells/mL for adherent cells or 3×10^5 cells/mL for Leukemia). (6R)-6-[(2Z)-pent-2-enyl]-5,6-dihydro-2H-pyran-2-one [(R)-(−)-Tuberolactone] in DMSO (0.3-25 μg/mL) were added to each well and incubated for 72 h. Control groups received the same amount of DMSO. After 69 h of treatment, 25 μL of MTT (5 mg/mL) was added. Three hours later, the MTT formazan product was dissolved in 100 μL of DMSO. Absorbance was measured at 595 nm in plate spectrophotometer (Varioskan Flash, Thermo Scientific). […] IC50 values and their 95% confidence intervals for two different experiments were obtained by non linear regression using Graphpad Prism version 5.0 for Windows (GraphPad Software, San Diego, Calif., USA).

[2] = test system: HL-60 (promyelocytic leukemia); test: MTT reduction cytotoxicity assay, HL-60; type: cell-based; conditions: Homo sapiens, HL-60, MTT, 72 h incubation
Protocol: as §1

[3] = test system: E. aerogenes; test: Paper disk diffusion antibacterial test, E. aerogenes; type: cell-based, Enterobacter aerogenes; conditions: gram-(−) strain, 24 h at 28° C.
Protocol: (§2) 235 mg alkaloids were extracted from 750 g leaves from the plant, Gaultheria procumbens (also called American wintergreen, teaberry, or boxberry). Fractionation of the crude extract was guided by antimicrobial activity against several gram-(+) and gram-(−) strains: Enterobacter aerogenes (Gram-negative rods), Bacillus cereus (Gram-positive rods), and Sarcina lutea (Gram-positive […]), using the paper disk diffusion method (Barry, A. L.; Thornsbery, C. Identification for Clinical Microbiology, 4th ed.; Washington, D.C., 1985; p 978) supplied within the Science Kit & Boreal Laboratories Antibiotic Effects Kit. The SK Antibiotics Effect Kit uses “Easygel” instead of agar dishes. Each paper disk (6 mm) containing approximately 100 μg of the extract was placed directly onto an Easygel plate, which had been freshly inoculated with either a gram-(+) or (−) strain. In addition, a standard antibiotic disk (30 μg of either penicillin, tetracycline, or chloramphenicol supplied within Science Kit & Boreal Laboratories Antibiotic Effects Kit) as well as a blank disk (with only solvent) were placed on the freshly inoculated Easygel plate. […] 45 mg (6R)-6-[(2Z)-pent-2-enyl]-5,6-dihydro-2H-pyran-2-one [(R)-(−)-Tuberolactone] were isolated (MW. 166.0989 g/mol). […]

[4] = test system: MCF-7 (breast adenocarcinoma); test: MTT reduction cytotoxicity assay, MCF-7; type: cell-based; conditions: Homo sapiens, MCF7, MCF-7, MTT, 72 h incubation
Protocol: as §1

[5] = test system: B. cereus; test: Paper disk diffusion antibacterial test, B. cereus; type: cell-based, Bacillus cereus; conditions: gram-(+) strain, 24 h at 28° C.
Protocol: as §2

[6] = test system: S. lutea; test: Paper disk diffusion antibacterial test, S. lutea; type: cell-based, Sarcina lutea; conditions: gram-(+) strain, 24 h at 28° C.
Protocol: as §2

SMILES	IC50 ([1]; two experiments)	IC50 ([1]; value in parentheses)	IC50 ([2]; two experiments)	antibacterial activity against E. aerogenes [3]	IC50 ([4]; two experiments)	IC50 ([4]; value in parentheses)	antibacterial activity against B. cereus [5]	IC50 ([2]; value in parentheses)	antibacterial activity against S. lutea [6]
COc1cccc2c1C(=O)c1c(O)c3c(c(O)c1C2=O)C[C@@](O)(C(=O)CO)C[C@@H]3O[C@H]1C[C@H](N)[C@H](O)[C@H](C)O1 [Doxorubicin, reference compound]	0.2 µg/mL	0.36 µM	0.02 µg/mL	–	–	–	–	–	–
CC/C=C\C[C@@H]1CC=CC(=O)O1 [Tuberolactone, (6R)-6-[(2Z)-pent-2-enyl]-5,6-dihydro-2H-pyran-2-one]	5.9 µg/mL	35.5 µM	4.4 µg/mL	confirmed	6.4 µg/mL	38.5 µM	confirmed	26 µM	confirmed
